Test [1] concerns the target epidermal growth factor receptor kinase. The arrangement: method as in PMID 30633509. Conditions: dual epidermal growth factor receptor kinase and microtubule inhibitor; cited from earlier work.
The next test deals with HL-7702 cells. Briefly: MTT cytotoxicity assay, normal cells HL-7702. Type of test: cell-based. The note with it: L02, 48 h, normal human hepatocytes, read-out: IC50 against HL-7702. The protocol:
(§1) The MTT method is often used to detect the cytotoxicity of compounds in vitro [64]. The cytotoxicity of 10a–10f was evaluated by MTT assay against BGC-823, BEL-7402, MCF-7, and A549 tumor cells. HL-7702 was selected to evaluate the safety of 10a–10f against human normal cells. 5-FU was also evaluated as a positive control. The well-grown cells were inoculated in 96-well plates at a density of 3000 cells/well and incubated in 37 °C for 24 h. The negative control group, blank control group, and administration group were set up. The cells were incubated with a gradient concentration (1.25, 2.5, 5, 10, and 20 μg/mL) of samples or 5-FU for 48 h. Then, 20 μL MTT solution (5 mg/mL) was added to each well. After the cells were incubated for 4 h, 150 μL DMSO was added to each well before testing. The absorbance was measured at 570 nm with a microplate reader. The inhibition rate and final IC50 values were calculated according to the following formula. The values shown are the average of at least three parallel trials. Inhibition rate (%) =1 − (ODsample − ODblank)/(ODnegative − ODblank) × 100%.

Test [2] relates to BGC-823 cells. The experiment in a line: MTT cytotoxicity assay, BGC-823 cells. Type of test: cell-based. The note with it: Homo sapiens, 48 h, read-out: IC50 against BGC-823. The protocol: as §1
For a further test, the system named is A549 cells. The experiment in a line: MTT cytotoxicity assay, A549 cells. Type of test: cell-based. Conditions: Homo sapiens, 48 h, read-out: IC50 against A549. The protocol:
as §1

For a further test, the system named is BEL-7402 cells. Briefly: MTT cytotoxicity assay, BEL-7402 cells. Format: cell-based. Conditions: Homo sapiens, 48 h, read-out: IC50 against BEL-7402. As for the experimental part:
as §1

The next test relates to MCF-7 cells. Briefly: MTT cytotoxicity assay, MCF-7 cells. Type of test: cell-based. The note with it: Homo sapiens, MCF7, 48 h, read-out: IC50 against MCF-7. The protocol: as §1
Test [3] deals with CT-DNA. The experiment in a line: Circular dichroism spectra of CT-DNA. Type of test: binding. Conditions: CT-DNA 600 μM, compound 100 μM, Tris-HCl pH 7.4. As for the experimental part:
The CD spectra of CT-DNA in the absence and presence of 10a or 10f were measured after equilibrating for 1 h in a 1 mm diameter quartz colorimeter at room temperature. The concentration of CT-DNA was fixed at 600 μM in each sample. Both 10a and 10f were added to the above CT-DNA solution at a concentration of 100 μM, respectively. The scanning speed was 200 nm/min. The spectra were scanned on an average of six times in the range of 200–400 nm. All measurements were performed in 0.05 M Tris-HCl buffer (pH 7.4).

Test [4] concerns BGC-823 cells. The experiment in a line: AO/EB double staining. Conditions: BGC-823, 0.5 IC50, IC50, 1.5 IC50, 24 h. Type of test: cell-based, Human. The protocol: AO (500 μL, 1 mg/mL) and EB (500 μL, 1 mg/mL) were mixed, and then 4 mL PBS was added to the above solution to form AO/EB dye […]. AO/EB dye (100 μL) was added to each well. After incubating for 3–5 min and washing twice with cold PBS, BGC-823 cells were observed immediately under an inverted fluorescence microscope.

For test [5], the system named is CT-DNA. Briefly: UV/Vis absorbance titration with CT-DNA. Type of test: binding. The note with it: hyperchromic effects at 205 nm and 260 nm, no wavelength shift. The protocol:
The binding patterns of 10a and 10f with CT-DNA were measured by UV/Vis spectroscopy in Tris-HCl buffer (0.05 M Tris-HCl/0.1 M NaCl, pH 7.4). The stock solution concentrations of both 10a and 10f in DMSO were 10^−3 M. CT-DNA was dissolved in Tris-HCl buffer and stored at 4 °C for use. The stock solution concentration of CT-DNA was determined by UV/Vis absorbance at 260 nm with the extinction coefficient 6600 M^−1·cm^−1 [67]. Tris-HCl buffer was used as a blank to make preliminary adjustments. Absorbance titration experiments were performed at room temperature with the concentrations of 10a and 10f at 0.1 µM, varying the concentrations of CT-DNA (0.2, 0.4, 0.6, 0.8, and 1 µM). The solution was allowed to equilibrate for 2–3 h before measurement. UV/Vis absorption spectra were recorded in the range of 200–400 nm. The binding constant was calculated according to the following equation [54]: […]=[DNA]/(εb−εf)+1/Kb(εb−εf), where εa corresponds to the observed extinction coefficient (A/[DNA]), εf corresponds to the extinction coefficient of the free compound, and εb is the extinction coefficient of the compound when fully bound to CT-DNA. [DNA] is the concentration of CT-DNA added to the compound. The Kb values of 10a and 10f were calculated from the slope to intercept ratio, which was obtained by plotting a graph of [DNA]/(εa − εf) versus [DNA].

Test [6] deals with BGC-823 cells. The experiment in a line: ROS detection (DCFH-DA) by flow cytometry. Type of test: cell-based, Human. Conditions: 24 h. As for the experimental part: According to the instructions of ROS Detection Kit (Solarbio, Beijing, China), in situ probe loading was adopted. ROS intensity changes were determined by inverted fluorescence microscopy and flow cytometry. The whole experiment was carried out under dark conditions.

Another test relates to DNA. The arrangement: method as in PMID 3427013. The note with it: classical intercalator; cited from earlier work.

With `COc1cc(Nc2ncnc3cc(-c4ccc(C)cc4)sc23)cc(OC)c1OC` [Compound 2], the IC50 in test [1] was 0.03 µM.

With `O=c1[nH]cc(F)c(=O)[nH]1` [Compound 5-FU, 5-fluorouracil, reference compound], the IC50 in the test on HL-7702 cells was determined as 20.83 ± 0.05 µM; in the test with BGC-823 cells [2], 15.18 ± 0.05 µM; with A549 cells it was 11.8 ± 0.89 µM; in the test on BEL-7402 cells it was 15.81 ± 0.01 µM; with MCF-7 cells, 11.3 ± 0.78 µM.

With `Brc1cccc(/C=N/Nc2cc(N/N=C/c3cccc(Br)n3)ncn2)n1` [Compound 10a, 4,6-Bis(2-((E)-(6-bromopyridin-2-yl)methylene)hydrazinyl)pyrimidine], the IC50 is > 100 µM with HL-7702 cells; 9 ± 0.6 µM in the test with BGC-823 cells [2]; 26.96 ± 0.14 µM in the test on A549 cells; 6.7 ± 0.4 µM in the test with BEL-7402 cells; 22.93 ± 0.16 µM in the test on MCF-7 cells. For the same molecule, in the test on CT-DNA [3], the “change of positive (279 nm) and negative (247 nm) CD bands of CT-DNA” value is “decreased in intensity”. In the test with BGC-823 cells [4], the “apoptosis by AO/EB double staining (morphology)” value is recorded as “induce apoptosis of BGC-823 cells in a dose-dependent manner”. The “interaction mode with DNA (absorption spectra)” value in the test on CT-DNA [5] was “groove binding and partial intercalation”.

With `C(=N\Nc1cc(N/N=C/c2ccccn2)ncn1)/c1ccccn1` [Compound 10b, 4,6-Bis(2-((E)-pyridin-2-ylmethylene)hydrazinyl)pyrimidine], the IC50 with HL-7702 cells is 38.4 ± 0.58 µM; with BGC-823 cells [2] it was 20.9 ± 0.82 µM; in the test on A549 cells, 27.3 ± 0.86 µM; in the test with BEL-7402 cells, 15 ± 2 µM; in the test with MCF-7 cells, 39.8 ± 1.18 µM.

Consider `Cc1cccc(/C=N/Nc2cc(N/N=C/c3cccc(C)n3)ncn2)n1` [Compound 10c, 4,6-Bis(2-((E)-(6-methylpyridin-2-yl)methylene)hydrazinyl)pyrimidine], for which the IC50 in the test with HL-7702 cells amounted to 60.51 ± 0.21 µM; with BGC-823 cells [2], 26.21 ± 0.1 µM; in the test with A549 cells it was 37.3 ± 2.3 µM; in the test on BEL-7402 cells, 29.5 ± 0.61 µM; with MCF-7 cells, 24 ± 0.43 µM.

With `Brc1cccc(/C=N/Nc2cc(N/N=C/c3cccc(Br)n3)nc(-c3ccccc3)n2)n1` [Compound 10d, 4,6-Bis(2-((E)-(6-bromopyridin-2-yl)methylene)hydrazinyl)-2-phenylpyrimidine], the IC50 in the test on HL-7702 cells was > 100 µM; in the test on BGC-823 cells [2], 20.8 ± 2.69 µM; in the test with A549 cells it was 47.1 ± 0.8 µM; in the test with BEL-7402 cells, 22.5 ± 2.83 µM; in the test with MCF-7 cells, 27.6 ± 0.45 µM.

For `C(=N\Nc1cc(N/N=C/c2ccccn2)nc(-c2ccccc2)n1)/c1ccccn1` [Compound 10e, 4,6-Bis(2-((E)-pyridin-2-ylmethylene)hydrazinyl)-2-phenylpyrimidine], the IC50 in the test with HL-7702 cells is > 100 µM; with BGC-823 cells [2], 17.7 ± 0.24 µM; in the test with A549 cells, 30.3 ± 0.65 µM; in the test with BEL-7402 cells it was 20.2 ± 1.43 µM; in the test on MCF-7 cells, 15.7 ± 2 µM.

For the molecule `Cc1cccc(/C=N/Nc2cc(N/N=C/c3cccc(C)n3)nc(-c3ccccc3)n2)n1` [Compound 10f, 4,6-Bis(2-((E)-(6-methylpyridin-2-yl)methylene)hydrazinyl)-2-phenylpyrimidine], the IC50 with HL-7702 cells was > 100 µM; in the test with BGC-823 cells [2], 7.89 ± 0.78 µM; in the test on A549 cells it was 37.7 ± 1.37 µM; in the test on BEL-7402 cells, 7.66 ± 0.55 µM; in the test on MCF-7 cells, 10.6 ± 0.14 µM. Moreover, the “change of positive (279 nm) and negative (247 nm) CD bands of CT-DNA” value in the test on CT-DNA [3] is listed as “decreased in intensity”. In addition, the “apoptosis by AO/EB double staining (morphology)” value in the test on BGC-823 cells [4] is reported as “induce apoptosis of BGC-823 cells in a dose-dependent manner”. For the same molecule, the “interaction mode with DNA (absorption spectra)” value with CT-DNA [5] is “groove binding and partial intercalation”. Also, the “ROS fluorescence intensity (DCF)” value is on record as 27.6 in the test on BGC-823 cells [6] (BGC-823, 4 μM) and 32.2 with BGC-823 cells [6] (BGC-823, 8 μM).

Take `CC[n+]1c(-c2ccccc2)c2cc(N)ccc2c2ccc(N)cc21` [EB, Ethidium bromide]: the “binding constant with DNA” value in the test on DNA is given as ~10^7 M^−1.

Values taken from publication PMC9822369, “Synthesis, Biological Evaluation, DNA Binding, and Molecular Docking of Hybrid 4,6-Dihydrazone Pyrimidine Derivatives as Antitumor Agents” (Molecules, 2022).
